Experimental data taken from paper PMC6271976, “Inhibition of Human Cytochrome P450 Enzymes by Bacopa monnieri Standardized Extract and Constituents” (Molecules, 2014).

Assays:
CYP3A4 = CYP3A4 (Homo sapiens, UniProt P08684); test: Luminescent P450-Glo recombinant human CYP3A4 inhibition assay
Text: (§1) The inhibitory effects of B. monnieri standardized extract and the constituents bacoside A, bacoside A3, bacopaside II, bacopaside X, bacopasaponin C and bacopaside I on human cytochrome P450 enzyme were examined using an in vitro luminescent assay. The P450-Glo™ substrates are converted by CYP enzymes to a luciferin product that reacts with a Luciferin Detection Reagent to produce light. The amount of light produced is directly proportional to the CYP enzyme activity. The net signals from untreated (added with buffer or solvent) CYP reactions represent total CYP activity (without any inhibition = 100%). […] The test compounds that inhibit CYP enzymes caused a reduction in CYP activity and therefore generated less light/signal.
(§2) The assay was carried out using P450-Glo™ Screening System (Cat.# V9770, V9790, V9880, V9890, V9910) from Promega (Madison, WI, USA). The system includes a membrane preparation containing recombinant human cytochrome P450 (CYP) enzyme, negative control membranes, a luminogenic substrate appropriate for the CYP enzyme, an NADPH regeneration system (containing nicotinamide adenine dinucleotide phosphate (NADP^+), glucose-6-phosphate, magnesium chloride (MgCl2) and glucose-6-phosphate dehydrogenase functioning to initiate and sustain the CYP450 reaction by maintaining a non-limiting NADPH system), reaction buffer, Luciferin Detection Reagent and Luciferin-Free Water. The membranes were prepared from baculovirus-infected insect cells and contained recombinant human CYP enzyme and P450 reductase (and cytochrome b5 for CYP2C9, 2C19 and 3A4). The negative control membranes were devoid of CYP activity. The dried powder of B. monnieri standardized methanolic extract containing 50% bacosides (batch No.: C92352/H) was purchased from Sami Labs Ltd. (Karnataka, India). Bacoside A, bacoside A3, bacopaside II, bacopaside X, bacopasaponin C and bacopaside I were purchased from Chromadex Inc. (Irvine, CA, USA).
(§3) The enzyme assay was performed in 96-well white bottom flat plates (Nunc, Roskilde, Denmark). The concentration of B. monnieri extract was 0.01–1000 µg/mL, and the positive controls and compounds (bacoside A, bacoside A3, bacopaside II, bacopaside X, bacopasaponin C and bacopaside I) were 0.01–100 µM. The concentration of the extracts, compounds and positive controls were prepared at 4× the original concentration. All extracts and compounds were dissolved in dimethyl sulfoxide (DMSO). The organic solvent was kept below 0.25% (v/v) in the incubation mixture. First, 12.5 μL of the 4× test compounds or positive controls (appropriate for each enzyme) were added to the “treated” wells. For the “untreated” (the values from these wells represent total CYP activity) and “minus-P450 control” wells (the values from these wells represent the CYP-independent background luminescence of the assay), 12.5 μL of vehicle (1% DMSO) was added. Then, 12.5 μL of the 4× control reaction mixture (containing membrane preparations devoid of CYP enzymes, the appropriate luminogenic substrate, and potassium phosphate buffer) were added to the minus-P450 control wells, and 12.5 μL of the 4× reaction mixture (containing human CYP membrane preparations, the appropriate luminogenic substrate, and potassium phosphate buffer) were added to all other wells. The plate was pre-incubated at room temperature for 10 min, and then 2× NADPH regeneration system was added to initiate the reaction. After incubation at room temperature for 30 min (45 min for CYP2D6), 50 μL of the reconstituted Luciferin Detection Reagent was added to stop the reaction and generate the luminescent signal. Before reading, the plate was incubated at room temperature for 20 min to stabilize the luminescent signal. The luminescence in all of the samples was measured using an Infinite F200 plate reader (Tecan, Männedorf, Switzerland).

CYP2D6 = CYP2D6 (Homo sapiens, UniProt P10635); test: Luminescent P450-Glo recombinant human CYP2D6 inhibition assay
Chain of CYP2D6 (P10635 whole entry): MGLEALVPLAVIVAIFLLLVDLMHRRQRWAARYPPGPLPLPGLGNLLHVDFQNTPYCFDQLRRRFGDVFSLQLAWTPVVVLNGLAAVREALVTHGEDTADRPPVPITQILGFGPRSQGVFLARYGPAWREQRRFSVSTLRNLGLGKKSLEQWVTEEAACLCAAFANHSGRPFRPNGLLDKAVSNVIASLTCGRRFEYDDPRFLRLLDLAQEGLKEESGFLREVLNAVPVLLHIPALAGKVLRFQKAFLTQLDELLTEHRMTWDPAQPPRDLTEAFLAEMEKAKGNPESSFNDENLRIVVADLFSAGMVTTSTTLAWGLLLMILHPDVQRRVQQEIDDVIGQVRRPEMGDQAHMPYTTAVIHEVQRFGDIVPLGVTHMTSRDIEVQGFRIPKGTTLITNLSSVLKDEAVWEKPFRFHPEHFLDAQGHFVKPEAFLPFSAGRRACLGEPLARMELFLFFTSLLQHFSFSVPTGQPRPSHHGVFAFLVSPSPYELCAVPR
Text: as §1, §2, §3

CYP2C9 = CYP2C9 (Homo sapiens, UniProt P11712); test: Luminescent P450-Glo recombinant human CYP2C9 inhibition assay
Chain of CYP2C9 (P11712 whole entry): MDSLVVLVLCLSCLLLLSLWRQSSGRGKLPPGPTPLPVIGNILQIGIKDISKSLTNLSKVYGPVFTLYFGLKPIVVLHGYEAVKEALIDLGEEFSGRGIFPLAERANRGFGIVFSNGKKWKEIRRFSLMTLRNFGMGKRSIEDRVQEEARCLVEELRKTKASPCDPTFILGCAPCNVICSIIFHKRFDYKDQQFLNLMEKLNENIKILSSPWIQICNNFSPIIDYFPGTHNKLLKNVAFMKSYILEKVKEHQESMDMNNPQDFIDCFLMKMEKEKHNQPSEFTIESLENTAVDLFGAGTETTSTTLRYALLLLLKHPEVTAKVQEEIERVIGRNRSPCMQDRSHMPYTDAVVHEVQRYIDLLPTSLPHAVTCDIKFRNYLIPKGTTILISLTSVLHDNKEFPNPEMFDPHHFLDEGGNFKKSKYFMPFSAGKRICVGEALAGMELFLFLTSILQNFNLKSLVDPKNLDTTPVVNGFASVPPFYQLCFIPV
Text: as §1, §2, §3

CYP2C19 = CYP2C19 (Homo sapiens, UniProt P33261); test: Luminescent P450-Glo recombinant human CYP2C19 inhibition assay
Chain of CYP2C19 (P33261 whole entry): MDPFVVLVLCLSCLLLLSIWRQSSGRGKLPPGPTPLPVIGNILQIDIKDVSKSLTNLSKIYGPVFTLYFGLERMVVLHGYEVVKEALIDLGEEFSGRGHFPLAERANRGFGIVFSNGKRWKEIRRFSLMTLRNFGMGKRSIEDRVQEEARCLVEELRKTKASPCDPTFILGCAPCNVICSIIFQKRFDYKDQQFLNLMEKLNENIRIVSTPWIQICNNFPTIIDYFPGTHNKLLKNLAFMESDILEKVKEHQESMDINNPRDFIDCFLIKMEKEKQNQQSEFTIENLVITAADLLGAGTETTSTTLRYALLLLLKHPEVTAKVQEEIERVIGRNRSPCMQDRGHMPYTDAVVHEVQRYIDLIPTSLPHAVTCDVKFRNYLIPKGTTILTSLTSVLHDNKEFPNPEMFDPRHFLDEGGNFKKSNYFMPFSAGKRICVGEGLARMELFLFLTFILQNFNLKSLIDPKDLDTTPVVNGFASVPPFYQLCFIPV
Text: as §1, §2, §3

CYP1A2 = molecular target: T1, CYP1A2 (Homo sapiens, UniProt P05177); test: Luminescent P450-Glo recombinant human CYP1A2 inhibition assay
T1 sequence (P05177 2-516 limits assumed): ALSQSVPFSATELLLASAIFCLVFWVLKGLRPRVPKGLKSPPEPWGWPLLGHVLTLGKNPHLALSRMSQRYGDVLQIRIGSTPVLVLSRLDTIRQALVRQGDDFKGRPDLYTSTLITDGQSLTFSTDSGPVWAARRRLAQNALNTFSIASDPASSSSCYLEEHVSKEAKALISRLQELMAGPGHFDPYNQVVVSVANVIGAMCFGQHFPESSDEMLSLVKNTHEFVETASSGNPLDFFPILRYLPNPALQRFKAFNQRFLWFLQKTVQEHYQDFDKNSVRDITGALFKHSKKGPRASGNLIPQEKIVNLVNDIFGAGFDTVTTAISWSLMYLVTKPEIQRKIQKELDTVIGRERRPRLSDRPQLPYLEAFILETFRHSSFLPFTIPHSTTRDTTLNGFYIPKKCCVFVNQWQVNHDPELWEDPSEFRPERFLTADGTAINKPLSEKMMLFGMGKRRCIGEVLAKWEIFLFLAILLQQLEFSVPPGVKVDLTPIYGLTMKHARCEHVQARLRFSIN
Text: as §1, §2, §3

Chain of CYP3A4 (P08684 2-503): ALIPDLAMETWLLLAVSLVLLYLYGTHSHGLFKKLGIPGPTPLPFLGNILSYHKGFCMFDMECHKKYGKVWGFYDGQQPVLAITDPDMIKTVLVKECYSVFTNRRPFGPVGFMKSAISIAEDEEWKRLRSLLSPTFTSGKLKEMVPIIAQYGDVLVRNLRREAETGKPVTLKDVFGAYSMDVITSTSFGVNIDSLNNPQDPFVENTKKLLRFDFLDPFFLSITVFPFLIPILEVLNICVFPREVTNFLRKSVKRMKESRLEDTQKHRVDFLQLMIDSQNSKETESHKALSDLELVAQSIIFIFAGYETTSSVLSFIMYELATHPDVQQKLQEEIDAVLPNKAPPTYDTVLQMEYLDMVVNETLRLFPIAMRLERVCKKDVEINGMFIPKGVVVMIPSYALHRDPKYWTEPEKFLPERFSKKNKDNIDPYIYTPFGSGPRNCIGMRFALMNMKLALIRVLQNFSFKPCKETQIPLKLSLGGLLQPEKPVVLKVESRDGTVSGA

Molecule `CC(C)=C[C@@H]1CO[C@]23C[C@]4(CO2)[C@H](CC[C@@H]2[C@@]5(C)CC[C@H](O[C@@H]6OC[C@H](O)[C@H](O[C@@H]7O[C@H](CO)[C@@H](O)[C@H](O)[C@H]7O)[C@H]6O[C@@H]6O[C@@H](CO)[C@H](O)[C@H]6O)C(C)(C)[C@@H]5CC[C@]24C)[C@H]3[C@@]1(C)O` [bacopasaponin C] has an IC50 (CYP3A4) greater than 100 µM, an IC50 (CYP2D6) greater than 100 µM and an IC50 (CYP2C9) greater than 100 µM. It also gave an IC50 (CYP2C19) greater than 100 µM and an IC50 (CYP1A2) greater than 100 µM.

Molecule `CC(C)=CC1COC23CC4(CO2)C(CCC2C5(C)CCC(OC6OC(CO)C(O)C(OC7OC(CO)C(O)C(O)C7O)C6OC6OC(CO)C(O)C6O)C(C)(C)C5CCC24C)C3C1(C)O` (stereo not drawn) [bacopaside II] has an IC50 (CYP3A4) greater than 100 µM, an IC50 (CYP2D6) greater than 100 µM and an IC50 (CYP2C9) greater than 100 µM. It also gave an IC50 (CYP2C19) greater than 100 µM and an IC50 (CYP1A2) greater than 100 µM.

`CC(C)=CC1COC23CC4(CO2)C(CCC2C5(C)CCC(OC6OCC(O)C(OC7OC(COS(=O)(=O)O)C(O)C(O)C7O)C6OC6OC(CO)C(O)C6O)C(C)(C)C5CCC24C)C3C1(C)O` (stereo not drawn) [bacopaside I] showed an IC50 (CYP3A4) greater than 100 µM, an IC50 (CYP2D6) greater than 100 µM and an IC50 (CYP2C9) greater than 100 µM. The IC50 (CYP2C19) was greater than 100 µM and the IC50 (CYP1A2) was greater than 100 µM.

With `CC(C)=C[C@H]1C[C@](C)(O)[C@@H]2[C@H]3CC[C@@H]4[C@@]5(C)CC[C@H](O[C@@H]6OC[C@H](O)[C@H](O[C@@H]7O[C@H](CO)[C@@H](O)[C@H](O)[C@H]7O)[C@H]6O[C@@H]6O[C@@H](CO)[C@H](O)[C@H]6O)C(C)(C)[C@@H]5CC[C@@]4(C)[C@@]34CO[C@@]2(C4)O1` [bacopaside X] the IC50 (CYP3A4) was greater than 100 µM, the IC50 (CYP2D6) was greater than 100 µM and the IC50 (CYP2C9) was greater than 100 µM. For the same molecule, the IC50 (CYP2C19) was greater than 100 µM and the IC50 (CYP1A2) was greater than 100 µM.

With `CC(C)=C[C@H]1C[C@](C)(O)[C@@H]2[C@H]3CC[C@@H]4[C@@]5(C)CC[C@H](O[C@@H]6O[C@H](CO)[C@@H](O)[C@H](O[C@@H]7O[C@H](CO)[C@@H](O)[C@H](O)[C@H]7O)[C@H]6O[C@@H]6O[C@@H](CO)[C@H](O)[C@H]6O)C(C)(C)[C@@H]5CC[C@@]4(C)[C@@]34CO[C@@]2(C4)O1` [bacoside A3] the IC50 (CYP3A4) was greater than 100 µM, the “Inhibition of CYP3A4 in words” value (CYP3A4; concentrations up to 100 µM) was “negligible inhibition” and the IC50 (CYP2D6) was greater than 100 µM. For the same molecule, the “Inhibition of CYP2D6 in words” value (CYP2D6; concentrations up to 100 µM) was “negligible inhibition”, the IC50 (CYP2C9) was greater than 100 µM and the “Inhibition of CYP2C9 in words” value (CYP2C9; concentrations up to 100 µM) was “negligible inhibition”. The IC50 (CYP2C19) was greater than 100 µM, the “Inhibition of CYP2C19 in words” value (CYP2C19; concentrations up to 100 µM) was “negligible inhibition” and the IC50 (CYP1A2) was greater than 100 µM. The “Inhibition of CYP1A2 in words” value (CYP1A2; concentrations up to 100 µM) was “negligible inhibition”.
